Results from PubChem BioAssay AID1963448 (Molecular Pharmacology Branch, DTP, NCI, 2024).

Test system: 616215-338-R-J1-PDC complex spheroid growth, % test/control
Experiment: Anticancer human tumor 616215-338-R-J1-PDC patient-derived colon adenocarcinoma cell line growth inhibition [Asc]
Conditions: for IC50: curve of first compound; for viability, T/C: stronger effect = lower value
Procedure, shortened: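 Stromal components (HUVEC and hMSC) are co-assembled with the cancer cells into multicellular spheroids. Drugs are then added singly or paired, at concentrations falling by half-log increments from a clinically achievable maximum, capped at 10 microM without known Cmax.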

[1] = second compound 0.00316 µM, first compound 0.0316 µM
[2] = second compound 0.00316 µM, first compound 0.1 µM
[3] = second compound 0.00316 µM, first compound 0.316 µM
[4] = second compound 0.00316 µM, first compound 1 µM
[5] = second compound 0.01 µM, first compound 0.0316 µM
[6] = second compound 0.01 µM, first compound 0.1 µM
[7] = second compound 0.01 µM, first compound 0.316 µM
[8] = second compound 0.01 µM, first compound 1 µM
[9] = second compound 0.0316 µM, first compound 0.0316 µM
[10] = second compound 0.0316 µM, first compound 0.1 µM
[11] = second compound 0.0316 µM, first compound 0.316 µM
[12] = second compound 0.0316 µM, first compound 1 µM
[13] = second compound 0.1 µM, first compound 0.0316 µM
[14] = second compound 0.1 µM, first compound 0.1 µM
[15] = second compound 0.1 µM, first compound 0.316 µM
[16] = second compound 0.1 µM, first compound 1 µM
[17] = second compound 0.316 µM, first compound 0.0316 µM
[18] = second compound 0.316 µM, first compound 0.1 µM
[19] = second compound 0.316 µM, first compound 0.316 µM
[20] = second compound 0.316 µM, first compound 1 µM
[21] = second compound 1 µM, first compound 0.0316 µM
[22] = second compound 1 µM, first compound 0.1 µM
[23] = second compound 1 µM, first compound 0.316 µM
[24] = second compound 1 µM, first compound 1 µM
[25] = second compound 0.00316 µM, first compound 0.00316 µM
[26] = second compound 0.00316 µM, first compound 0.01 µM
[27] = second compound 0.01 µM, first compound 0.00316 µM
[28] = second compound 0.01 µM, first compound 0.01 µM
[29] = second compound 0.0316 µM, first compound 0.00316 µM
[30] = second compound 0.0316 µM, first compound 0.01 µM
[31] = second compound 0.1 µM, first compound 0.00316 µM
[32] = second compound 0.1 µM, first compound 0.01 µM
[33] = second compound 0.316 µM, first compound 0.00316 µM
[34] = second compound 0.316 µM, first compound 0.01 µM
[35] = second compound 1 µM, first compound 0.00316 µM
[36] = second compound 1 µM, first compound 0.01 µM
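Note: spheroids exposed to agents for seven days before readout.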
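Throughout, for viability, T/C: 100% = DMSO vehicle control viability.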

C=CC(=O)N1CCN(c2nc(=O)n(-c3c(C)ccnc3C(C)C)c3nc(-c4c(O)cccc4F)c(F)cc23)C(C)C1 (stereo unspecified) + CNC(C)C(=O)NC1CN(S(=O)(=O)c2cccc(S(=O)(=O)N3CCC4CCC(C(=O)NC(c5ccccc5)c5ccccc5)N4C(=O)C(NC(=O)C(C)NC)C3)c2)CCC2CCC(C(=O)NC(c3ccccc3)c3ccccc3)N2C1=O gave an IC50 (second compound 0.00316 µM) of 4240 nM, an IC50 (second compound 0.01 µM) of 2680 nM and an IC50 (second compound 0.0316 µM) of 4240 nM. For the same molecule, the IC50 (second compound 0.1 µM) was 3320 nM, the IC50 (second compound 0.316 µM) was 2220 nM and the IC50 (second compound 1 µM) was 3250 nM. The viability, T/C [1] was 109%, the viability, T/C [2] was 99.2% and the viability, T/C [3] was 88%. It also gave a viability, T/C [4] of 78.2%, a viability, T/C (second compound 0.00316 µM, first compound 3.16 µM) of 58% and a viability, T/C (second compound 0.00316 µM, first compound 10 µM) of 29.4%. For the same molecule, the viability, T/C [5] was 110%, the viability, T/C [6] was 93.2% and the viability, T/C [7] was 95.5%. For the same molecule, the viability, T/C [8] was 66.7%, the viability, T/C (second compound 0.01 µM, first compound 3.16 µM) was 47.3% and the viability, T/C (second compound 0.01 µM, first compound 10 µM) was 27.8%. The viability, T/C [9] was 106%, the viability, T/C [10] was 101% and the viability, T/C [11] was 96%. The viability, T/C [12] was 76.9%, the viability, T/C (second compound 0.0316 µM, first compound 3.16 µM) was 58.1% and the viability, T/C (second compound 0.0316 µM, first compound 10 µM) was 29.2%. For the same molecule, the viability, T/C [13] was 95.8%, the viability, T/C [14] was 101% and the viability, T/C [15] was 81.5%. For the same molecule, the viability, T/C [16] was 81.1%, the viability, T/C (second compound 0.1 µM, first compound 3.16 µM) was 48.6% and the viability, T/C (second compound 0.1 µM, first compound 10 µM) was 28.8%. It also gave a viability, T/C [17] of 92.6%, a viability, T/C [18] of 105% and a viability, T/C [19] of 104%. It also gave a viability, T/C [20] of 61.8%, a viability, T/C (second compound 0.316 µM, first compound 3.16 µM) of 53% and a viability, T/C (second compound 0.316 µM, first compound 10 µM) of 36.4%. It also gave a viability, T/C [21] of 104%, a viability, T/C [22] of 100% and a viability, T/C [23] of 100%. It also gave a viability, T/C [24] of 68.6%, a viability, T/C (second compound 1 µM, first compound 3.16 µM) of 54.6% and a viability, T/C (second compound 1 µM, first compound 10 µM) of 28.9%.

COc1c(OCCCN2CCOCC2)ccc2c3n(c(=NC(=O)c4cnc(N)nc4)nc12)CCN3 + CNC(C)C(=O)NC1CN(S(=O)(=O)c2cccc(S(=O)(=O)N3CCC4CCC(C(=O)NC(c5ccccc5)c5ccccc5)N4C(=O)C(NC(=O)C(C)NC)C3)c2)CCC2CCC(C(=O)NC(c3ccccc3)c3ccccc3)N2C1=O showed an IC50 (second compound 0.00316 µM) of 53.3 nM, an IC50 (second compound 0.01 µM) of 54.9 nM and an IC50 (second compound 0.0316 µM) of 47 nM. For the same molecule, the IC50 (second compound 0.1 µM) was 46.4 nM, the IC50 (second compound 0.316 µM) was 52.4 nM and the IC50 (second compound 1 µM) was 40.3 nM. The viability, T/C [25] was 107%, the viability, T/C [26] was 83.5% and the viability, T/C [1] was 68.8%. The viability, T/C [2] was 30.4%, the viability, T/C [3] was 14.9% and the viability, T/C [4] was 2.9%. For the same molecule, the viability, T/C [27] was 98.6%, the viability, T/C [28] was 101% and the viability, T/C [5] was 64%. The viability, T/C [6] was 32.5%, the viability, T/C [7] was 9.38% and the viability, T/C [8] was 2.23%. For the same molecule, the viability, T/C [29] was 94.1%, the viability, T/C [30] was 97.8% and the viability, T/C [9] was 59.5%. The viability, T/C [10] was 26.1%, the viability, T/C [11] was 14.3% and the viability, T/C [12] was 1.77%. The viability, T/C [31] was 101%, the viability, T/C [32] was 92.4% and the viability, T/C [13] was 56.7%. The viability, T/C [14] was 30.4%, the viability, T/C [15] was 14.1% and the viability, T/C [16] was 1.87%. It also gave a viability, T/C [33] of 93.4%, a viability, T/C [34] of 97.8% and a viability, T/C [17] of 65.1%. The viability, T/C [18] was 27.7%, the viability, T/C [19] was 15.3% and the viability, T/C [20] was 3.07%. The viability, T/C [35] was 87.4%, the viability, T/C [36] was 89.4% and the viability, T/C [21] was 52.8%. For the same molecule, the viability, T/C [22] was 26.8%, the viability, T/C [23] was 16.8% and the viability, T/C [24] was 6.17%.

NC1CCC(NC2CC2c2ccccc2)CC1 (stereo unspecified) + CNC(C)C(=O)NC1CN(S(=O)(=O)c2cccc(S(=O)(=O)N3CCC4CCC(C(=O)NC(c5ccccc5)c5ccccc5)N4C(=O)C(NC(=O)C(C)NC)C3)c2)CCC2CCC(C(=O)NC(c3ccccc3)c3ccccc3)N2C1=O was tested, and the IC50 (second compound 0.00316 µM) was > 100 nM, the IC50 (second compound 0.01 µM) was > 100 nM and the IC50 (second compound 0.0316 µM) was > 100 nM. For the same molecule, the IC50 (second compound 0.1 µM) was > 100 nM, the IC50 (second compound 0.316 µM) was > 100 nM and the IC50 (second compound 1 µM) was > 100 nM. For the same molecule, the viability, T/C (second compound 0.00316 µM, first compound 0.000316 µM) was 101%, the viability, T/C (second compound 0.00316 µM, first compound 0.001 µM) was 94.2% and the viability, T/C [25] was 73.6%. For the same molecule, the viability, T/C [26] was 93.9%, the viability, T/C [1] was 103% and the viability, T/C [2] was 91%. It also gave a viability, T/C (second compound 0.01 µM, first compound 0.000316 µM) of 96.7%, a viability, T/C (second compound 0.01 µM, first compound 0.001 µM) of 93.9% and a viability, T/C [27] of 95.7%. For the same molecule, the viability, T/C [28] was 100%, the viability, T/C [5] was 95.2% and the viability, T/C [6] was 98%. The viability, T/C (second compound 0.0316 µM, first compound 0.000316 µM) was 92%, the viability, T/C (second compound 0.0316 µM, first compound 0.001 µM) was 89.8% and the viability, T/C [29] was 89.9%. For the same molecule, the viability, T/C [30] was 82.8%, the viability, T/C [9] was 96.1% and the viability, T/C [10] was 95.3%. The viability, T/C (second compound 0.1 µM, first compound 0.000316 µM) was 100%, the viability, T/C (second compound 0.1 µM, first compound 0.001 µM) was 87% and the viability, T/C [31] was 92.2%. The viability, T/C [32] was 99%, the viability, T/C [13] was 98.7% and the viability, T/C [14] was 89.8%. For the same molecule, the viability, T/C (second compound 0.316 µM, first compound 0.000316 µM) was 103%, the viability, T/C (second compound 0.316 µM, first compound 0.001 µM) was 94.2% and the viability, T/C [33] was 88.4%. The viability, T/C [34] was 97.5%, the viability, T/C [17] was 102% and the viability, T/C [18] was 90.7%. The viability, T/C (second compound 1 µM, first compound 0.000316 µM) was 103%, the viability, T/C (second compound 1 µM, first compound 0.001 µM) was 91% and the viability, T/C [35] was 95.4%. For the same molecule, the viability, T/C [36] was 72.9%, the viability, T/C [21] was 98.5% and the viability, T/C [22] was 84.7%.
